Source: patent US6489469B1, “Method for storing or transporting erythritol solution” (Nikken Chemicals Co., Ltd., priority 1999, dated 2002)

Columns and labels:
[1] = tested on: Staphylococcus aureus IFO 13276; assay: Viable Count of Staphylococcus aureus IFO 13276 in Erythritol Solution; assay type: cell-based
Method: (§1) Erythritol solutions of respective concentrations in the range of from 30 to 60% were prepared. To these were inoculated Staphylococcus aureus IFO 13276, Bacillus subtilis IFO 3134, and Escherichia coli IFO 3972 as bacteria, Candida albicans IFO 1549 and Saccharomyces cerevisiae ATCC 9763 as yeasts, Aspergillus niger IFO 6342, Aspergillus flavus IFO 6343, and Penicillium funiculosum IFO 6345 as fungi, respectively, in a population (concentration) of 10,000 cells/mL or more. After the inoculation, the solutions were stored at 30, 37, 45, 50, or 60° C., respectively, for 56 days and the number of viable cell was determined daily. The determination of the number of viable cell was performed by a method of coating 0.1 mL of appropriately diluted sample cultivation on an agar plate and cultivating and counting the number of viable cell (the number of colony) that grew after the cultivation.

[2] = tested on: Escherichia coli IFO 3972; assay: Viable Count of Escherichia coli IFO 3972 in Erythritol Solution; assay type: cell-based
Method: as §1

OC[C@@H](O)[C@@H](O)CO [Erythritol Solution, erythritol]
4200 cells/mL: The Number of Viable Cell ([1]; 30° C., 40% w/w, Day 14)
140 cells/mL: The Number of Viable Cell ([2]; 37° C., 40% w/w, Day 7)
450 cells/mL: The Number of Viable Cell ([2]; 45° C., 30% w/w, Day 3)
420 cells/mL: The Number of Viable Cell ([2]; 30° C., 40% w/w, Day 14)
2820 cells/mL: The Number of Viable Cell ([2]; 30° C., 40% w/w, Day 7)
11100 cells/mL: The Number of Viable Cell ([1]; 30° C., 30% w/w, Day 7) | The Number of Viable Cell ([2]; 37° C., 40% w/w, Day 3)
8380 cells/mL: The Number of Viable Cell ([1]; 30° C., 40% w/w, Day 3)
10400 cells/mL: The Number of Viable Cell ([2]; 30° C., 40% w/w, Day 3)
6200 cells/mL: The Number of Viable Cell ([1]; 30° C., 40% w/w, Day 7)
3 days: time after which microbes died ([1]; temperature of 50° C. or more) | time after which microbes died ([2]; temperature of 50° C. or more)
7780 cells/mL: The Number of Viable Cell ([2]; 30° C., 30% w/w, Day 14)
20400 cells/mL: The Number of Viable Cell ([1]; 30° C., 30% w/w, Day 3)
prevented from growing: growth of the microbes ([1]; temperature of 50° C. or more) | growth of the microbes ([2]; temperature of 50° C. or more)
0 cells/mL: The Number of Viable Cell ([1]; 30° C., 30% w/w, Day 28) | The Number of Viable Cell ([1]; 30° C., 30% w/w, Day 56) | The Number of Viable Cell ([1]; 30° C., 40% w/w, Day 28) | The Number of Viable Cell ([1]; 30° C., 40% w/w, Day 56) | The Number of Viable Cell ([1]; 45° C., 30% w/w, Day 3) | The Number of Viable Cell ([1]; 45° C., 30% w/w, Day 7) | The Number of Viable Cell ([1]; 45° C., 30% w/w, Day 14) | The Number of Viable Cell ([1]; 45° C., 30% w/w, Day 28) | The Number of Viable Cell ([1]; 45° C., 30% w/w, Day 56) | The Number of Viable Cell ([1]; 45° C., 40% w/w, Day 3) | The Number of Viable Cell ([1]; 45° C., 40% w/w, Day 7) | The Number of Viable Cell ([1]; 45° C., 40% w/w, Day 14) | The Number of Viable Cell ([1]; 45° C., 40% w/w, Day 28) | The Number of Viable Cell ([1]; 45° C., 40% w/w, Day 56) | The Number of Viable Cell ([1]; 45° C., 50% w/w, Day 3) | The Number of Viable Cell ([1]; 45° C., 50% w/w, Day 7) | The Number of Viable Cell ([1]; 45° C., 50% w/w, Day 14) | The Number of Viable Cell ([1]; 45° C., 50% w/w, Day 28) | The Number of Viable Cell ([1]; 45° C., 50% w/w, Day 56) | The Number of Viable Cell ([1]; 50° C., 30% w/w, Day 3) | The Number of Viable Cell ([1]; 50° C., 30% w/w, Day 7) | The Number of Viable Cell ([1]; 50° C., 30% w/w, Day 14) | The Number of Viable Cell ([1]; 50° C., 30% w/w, Day 28) | The Number of Viable Cell ([1]; 50° C., 30% w/w, Day 56) | The Number of Viable Cell ([1]; 50° C., 40% w/w, Day 3) | The Number of Viable Cell ([1]; 50° C., 40% w/w, Day 7) | The Number of Viable Cell ([1]; 50° C., 40% w/w, Day 14) | The Number of Viable Cell ([1]; 50° C., 40% w/w, Day 28) | The Number of Viable Cell ([1]; 50° C., 40% w/w, Day 56) | The Number of Viable Cell ([1]; 50° C., 50% w/w, Day 3) | The Number of Viable Cell ([1]; 50° C., 50% w/w, Day 7) | The Number of Viable Cell ([1]; 50° C., 50% w/w, Day 14) | The Number of Viable Cell ([1]; 50° C., 50% w/w, Day 28) | The Number of Viable Cell ([1]; 50° C., 50% w/w, Day 56) | The Number of Viable Cell ([2]; 30° C., 30% w/w, Day 56) | The Number of Viable Cell ([2]; 30° C., 40% w/w, Day 28) | The Number of Viable Cell ([2]; 30° C., 40% w/w, Day 56) | The Number of Viable Cell ([2]; 37° C., 30% w/w, Day 14) | The Number of Viable Cell ([2]; 37° C., 30% w/w, Day 28) | The Number of Viable Cell ([2]; 37° C., 30% w/w, Day 56) | The Number of Viable Cell ([2]; 37° C., 40% w/w, Day 14) | The Number of Viable Cell ([2]; 37° C., 40% w/w, Day 28) | The Number of Viable Cell ([2]; 37° C., 40% w/w, Day 56) | The Number of Viable Cell ([2]; 45° C., 30% w/w, Day 7) | The Number of Viable Cell ([2]; 45° C., 30% w/w, Day 14) | The Number of Viable Cell ([2]; 45° C., 30% w/w, Day 28) | The Number of Viable Cell ([2]; 45° C., 30% w/w, Day 56) | The Number of Viable Cell ([2]; 45° C., 40% w/w, Day 3) | The Number of Viable Cell ([2]; 45° C., 40% w/w, Day 7) | The Number of Viable Cell ([2]; 45° C., 40% w/w, Day 14) | The Number of Viable Cell ([2]; 45° C., 40% w/w, Day 28) | The Number of Viable Cell ([2]; 45° C., 40% w/w, Day 56) | The Number of Viable Cell ([2]; 45° C., 50% w/w, Day 3) | The Number of Viable Cell ([2]; 45° C., 50% w/w, Day 7) | The Number of Viable Cell ([2]; 45° C., 50% w/w, Day 14) | The Number of Viable Cell ([2]; 45° C., 50% w/w, Day 28) | The Number of Viable Cell ([2]; 45° C., 50% w/w, Day 56) | The Number of Viable Cell ([2]; 50° C., 30% w/w, Day 3) | The Number of Viable Cell ([2]; 50° C., 30% w/w, Day 7) | The Number of Viable Cell ([2]; 50° C., 30% w/w, Day 14) | The Number of Viable Cell ([2]; 50° C., 30% w/w, Day 28) | The Number of Viable Cell ([2]; 50° C., 30% w/w, Day 56) | The Number of Viable Cell ([2]; 50° C., 40% w/w, Day 3) | The Number of Viable Cell ([2]; 50° C., 40% w/w, Day 7) | The Number of Viable Cell ([2]; 50° C., 40% w/w, Day 14) | The Number of Viable Cell ([2]; 50° C., 40% w/w, Day 28) | The Number of Viable Cell ([2]; 50° C., 40% w/w, Day 56) | The Number of Viable Cell ([2]; 50° C., 50% w/w, Day 3) | The Number of Viable Cell ([2]; 50° C., 50% w/w, Day 7) | The Number of Viable Cell ([2]; 50° C., 50% w/w, Day 14) | The Number of Viable Cell ([2]; 50° C., 50% w/w, Day 28) | The Number of Viable Cell ([2]; 50° C., 50% w/w, Day 56)
10000 or more cells/mL: The Number of Viable Cell ([1]; 30° C., 30% w/w, Day 0) | The Number of Viable Cell ([1]; 30° C., 40% w/w, Day 0) | The Number of Viable Cell ([1]; 45° C., 30% w/w, Day 0) | The Number of Viable Cell ([1]; 45° C., 40% w/w, Day 0) | The Number of Viable Cell ([1]; 45° C., 50% w/w, Day 0) | The Number of Viable Cell ([1]; 50° C., 30% w/w, Day 0) | The Number of Viable Cell ([1]; 50° C., 40% w/w, Day 0) | The Number of Viable Cell ([1]; 50° C., 50% w/w, Day 0) | The Number of Viable Cell ([2]; 30° C., 30% w/w, Day 0) | The Number of Viable Cell ([2]; 30° C., 30% w/w, Day 3) | The Number of Viable Cell ([2]; 30° C., 30% w/w, Day 7) | The Number of Viable Cell ([2]; 30° C., 40% w/w, Day 0) | The Number of Viable Cell ([2]; 37° C., 30% w/w, Day 0) | The Number of Viable Cell ([2]; 37° C., 30% w/w, Day 3) | The Number of Viable Cell ([2]; 37° C., 40% w/w, Day 0) | The Number of Viable Cell ([2]; 45° C., 30% w/w, Day 0) | The Number of Viable Cell ([2]; 45° C., 40% w/w, Day 0) | The Number of Viable Cell ([2]; 45° C., 50% w/w, Day 0) | The Number of Viable Cell ([2]; 50° C., 30% w/w, Day 0) | The Number of Viable Cell ([2]; 50° C., 40% w/w, Day 0) | The Number of Viable Cell ([2]; 50° C., 50% w/w, Day 0)
8270 cells/mL: The Number of Viable Cell ([2]; 37° C., 30% w/w, Day 7)
360 cells/mL: The Number of Viable Cell ([1]; 30° C., 30% w/w, Day 14)
110 cells/mL: The Number of Viable Cell ([2]; 30° C., 30% w/w, Day 28)
